{"source": "patent US20220175758A1", "about": "“COMPOSITIONS AND METHODS TO TREAT NON-ALCOHOLIC FATTY LIVER DISEASES (NAFLD)” (Coherus Biosciences, Inc., priority 2019, published 2022)", "origin": "cited, not measured here", "details": "monotherapy"}
{"smiles": "Cc1cc(F)c(C(=O)Nc2cccc(-c3nncn3C(C)C)n2)cc1-n1cnc(C2CC2)c1", "note": "[selonsertib]", "values": [{"measurement": "primary endpoint of the STELLAR-4 phase 3 clinical trial", "result": "failed to meet the primary endpoint"}]}
